Test results as given in patent US6184238A, “N-hydroxyurea derivative and pharmaceutical composition containing the same” (Nikken Chemicals Co., Ltd., priority 1996, dated 2001).
Where two headings read alike, the source gives them in different places.

What was measured:
Lipoxygenase = target: T1, Lipoxygenase (Rattus norvegicus, UniProt P12527); assay: Lipoxygenase inhibitory activity (leukotriene B4 production, rat polymorphonuclear leukocytes); format: cell-based
T1 construct: Using rat polymorphonuclear leukocytes; endogenous in cells; host or cells: casein-elicited peritoneal polymorphonuclear leukocytes of male Wistar rats
T1 sequence (P12527 1-673): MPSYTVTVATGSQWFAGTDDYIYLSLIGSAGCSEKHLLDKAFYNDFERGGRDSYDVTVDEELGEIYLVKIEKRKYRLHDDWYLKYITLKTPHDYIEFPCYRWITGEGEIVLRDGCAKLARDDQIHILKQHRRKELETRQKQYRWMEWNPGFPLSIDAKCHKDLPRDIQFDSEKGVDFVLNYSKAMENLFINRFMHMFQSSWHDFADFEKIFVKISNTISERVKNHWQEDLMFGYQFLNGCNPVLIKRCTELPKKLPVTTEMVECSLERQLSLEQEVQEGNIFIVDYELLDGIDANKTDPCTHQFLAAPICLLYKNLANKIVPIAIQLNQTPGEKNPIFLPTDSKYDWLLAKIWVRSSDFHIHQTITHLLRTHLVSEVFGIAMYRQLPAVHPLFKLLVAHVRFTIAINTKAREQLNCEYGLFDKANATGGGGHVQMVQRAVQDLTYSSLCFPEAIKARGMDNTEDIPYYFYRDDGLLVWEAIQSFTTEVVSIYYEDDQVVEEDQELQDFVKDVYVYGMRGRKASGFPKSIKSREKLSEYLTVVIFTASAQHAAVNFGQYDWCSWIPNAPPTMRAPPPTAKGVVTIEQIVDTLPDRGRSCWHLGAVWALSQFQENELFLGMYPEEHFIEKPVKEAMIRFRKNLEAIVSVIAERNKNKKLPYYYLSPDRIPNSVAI
Procedure: (Test of Lipoxygenase Inhibitory Activity)
Using rat polymorphonuclear leukocytes, a test was conducted using as an indicator the amount of production of leukotriene B4. Wistar male rats (Japan Clea) were intraperitoneally administered with 12% sodium casein. After 16 hours, the peritoneal cavities were lavaged and the polymorphonuclear leukocytes were recovered. The polymorphonuclear leukocytes thus obtained were suspended in a phosphate buffer (137 mM NaCl, 3 mM KCl, 8 mM Na2 HPO4, 2 mM KH2 PO4) (2.5×10^5 cells/0.4 ml), then the test compound (final concentration 10^-5 M) was added and incubation performed for 10 minutes at 37° C. then a calcium solution (10 mM CaCl2, 0.86% NaCl) 0.1 ml was added and incubation performed for 5 minutes, then 1.25 μl of calcium ionophore (20 μm, A-23187) was added and the reaction started. Five minutes after the addition, 250 μl of methanol was added to stop the reaction. After the reaction was stopped, the result was centrifuged for 20 minutes (4° C., 3000 rpm), then the amount of leukotriene B4 in the supernatant was measured by the EIA method (Cayman Co. kit).
As the test compound, the same compounds as in Test Example 1 were used for the test.

Thromboxane synthase = target: T2, Thromboxane synthase (Homo sapiens, UniProt P24557); assay: Thromboxane synthase inhibitory activity (thromboxane B2 production, human platelet microsomes); format: biochemical; details: prostaglandin H2 added, pH 7.5, read-out: TxSI IC50 (inhibition of thromboxane B2 production)
T2 construct: Human platelet microsomes were used; from tissue; host or cells: human platelet microsomes
T2 sequence (P24557 1-533): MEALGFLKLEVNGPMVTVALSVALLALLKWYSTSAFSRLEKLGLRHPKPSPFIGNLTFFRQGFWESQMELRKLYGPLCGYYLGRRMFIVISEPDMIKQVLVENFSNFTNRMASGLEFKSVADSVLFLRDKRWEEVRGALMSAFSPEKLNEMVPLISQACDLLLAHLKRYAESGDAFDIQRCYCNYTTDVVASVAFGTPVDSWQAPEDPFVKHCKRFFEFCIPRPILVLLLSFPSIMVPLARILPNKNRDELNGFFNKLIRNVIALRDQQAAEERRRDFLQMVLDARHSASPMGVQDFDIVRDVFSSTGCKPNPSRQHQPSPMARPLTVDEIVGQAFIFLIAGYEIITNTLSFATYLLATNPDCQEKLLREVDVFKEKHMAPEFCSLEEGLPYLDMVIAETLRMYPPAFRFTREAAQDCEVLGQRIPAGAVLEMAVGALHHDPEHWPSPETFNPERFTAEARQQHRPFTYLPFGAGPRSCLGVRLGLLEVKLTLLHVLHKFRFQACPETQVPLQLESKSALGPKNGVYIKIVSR
Procedure: (Test of Thromboxane synthase Inhibitory Activity)
Human platelet microsomes were used and a test performed using as an indicator the amount of production of the thromboxane A2 stable metabolite thromboxane B2. A buffer solution (20 mM tris-HCl buffer solution, 1 mM EDTA, pH 7.5) containing human platelet microsomes (50 μg protein/ ml) and the test compound (final concentration of 10^-6 M) was stirred, then incubated at 0° C. for 30 minutes, followed by adding prostaglandin H2 (100 ng/2 μl). This was made acidic to stop the reaction, then neutralized with 1M Tris-base, then centrifuged at 3000 rpm for 20 minutes. The amount of the thromboxane B2 in the supernatant was measured by the EIA method (Cayman Co. kit).
As the test compound, the compounds 1, 6, 10, 11, 18 to 21, 24 to 27, 35, 40, 41, 44, and 45 were used for the test.

Crj-ICR male mice = assay: Acute toxicity test; format: in vivo, mouse; details: intraperitoneal, dosages of up to 1000 mg/kg, 7 days observation
Procedure: Crj-ICR male mice (7 weeks old, five mice to a group) were used. The test compound (Compounds 9, 26, and 33) was suspended in 0.5% sodium carboxymethylcellulose and administered intraperitoneally at a ratio of 10 ml/kg. The survival of the animals was observed up until 7 days after administration.

[1] = tested on: Antigen-Induced Bronchoconstriction Model of Guinea Pig; assay: Antigen-induced bronchoconstriction model of guinea pig (Konzett-Rossler method); format: in vivo; details: Cavia porcellus, 1 h; guinea pigs sensitized by ovalbumin; oral; one hour after administration; read-out: Suppression of respiratory constriction (ED50)
Procedure: (Pharmacological Activity on Antigen-Induced Bronchoconstriction Model of Guinea Pig)
Guinea pigs sensitized by ovalbumin were used and orally administered with the test compound suspended in 5% gum arabic. The activity for inhibiting antigen-induced bronchoconstriction after one hour after administration was measured by the Konzett-Rossler method.
Each of the sensitized guinea pigs was anesthesized by 35 mg/kg pentobarbital, a cannula was inserted into the respiratory tract and connected to an artificial respirator, a cannula was inserted into the jugular vein, and treatment was performed by 5 mg/kg suxamethonium and […] mepyramine. Next, the guinea pig was inhaled a nebulized ovalbumin to cause bronchoconstriction and the activity in inhibiting bronchoconstriction was found from the ratio of the amount of overflow volume to the detector to the amount of air blown volume from the artificial respirator.
As the test compound, the Compounds 19, 26, and 33 were used. As the control, the thromboxane synthase inhibitor OKY-046 and the 5-lipoxygenaseinhibitor A-64077 were used.

[2] = rat polymorphonuclear leukocytes, calcium ionophore A-23187, 37° C., read-out: LTBI IC50 (inhibition of leukotriene B4 production)

Which IC50 (Lipoxygenase; [2]) does the source give for `NC(=O)N(O)CCCCCCCCCCCCn1c(-c2cccnc2)cc2ccccc21` [Compound 1, N-Hydroxy-N-[12-[1-[2-(3-pyridyl)indolyl]]dodecyl]urea] here?
The IC50 was 6 nM.

What about the IC50 (Thromboxane synthase) of the same molecule?
The IC50 was 3 nM.

How did the IC50 (Lipoxygenase; [2]) turn out when `NC(=O)N(O)CCCCCCCCn1c(-c2cccnc2)cc2ccccc21` [Compound 6, N-Hydroxy-N-[8-[1-[2-(3-pyridyl)indolyl]]octyl]urea] was run?
Its IC50 is 10 nM.

And the IC50 (Thromboxane synthase)?
Its IC50 is 0.7 nM.

How did the “Deaths (acute toxicity)” value (Crj-ICR male mice) turn out when `NC(=O)N(O)CCCCCCn1c(-c2cccnc2)c(Cl)c2cc(Cl)ccc21` [Compound 9, N-[6-[1-[3,5-dichloro-2-(3-pyridyl)indolyl]]hexyl]-N-hydroxyurea] was run?
The value was “no deaths”.

`Cc1c(-c2cccnc2)n(CCCCCCN(O)C(N)=O)c2ccc(Cl)cc12` [Compound 10, N-[6-[1-[5-Chloro-3-methyl-2-(3-pyridyl)indolyl]]hexyl]-N-hydroxyurea] was tested. Which IC50 (Lipoxygenase; [2]) did it give?
Its IC50 is 30 nM.

What about the IC50 (Thromboxane synthase) of the same molecule?
The IC50 was 0.7 nM.

Which IC50 (Lipoxygenase; [2]) does the source give for `NC(=O)N(O)CCCCCCCCCCn1c(-c2cccnc2)cc2ccccc21` [Compound 11, N-hydroxy-N-[10-[1-[2-(3-pyridyl)indolyl]]decyl]urea] here?
Its IC50 is 9 nM.

What about the IC50 (Thromboxane synthase) of the same molecule?
The IC50 was 0.8 nM.

With `NC(=O)N(O)CCCCCCn1cc(Cc2cccnc2)c2ccccc21` [Compound 18, N-Hydroxy-N-[6-[1-[3-(3-pyridylmethyl)indolyl]]hexyl]urea] as the molecule, how does the IC50 (Lipoxygenase; [2]) read?
Its IC50 is 100 nM.

What about the IC50 (Thromboxane synthase) of the same molecule?
The IC50 was 300 nM.

`NC(=O)N(O)CCn1cc(-c2cccnc2)c2ccccc21` [Compound 19, N-Hydroxy-N-[2-[1-[3-(3-pyridyl)indolyl]]ethyl]urea] was tested. Which ED50 [1] did it give?
The ED50 was 30 mg/kg.

What about the IC50 (Lipoxygenase; [2]) of the same molecule?
Its IC50 is 300 nM.

And the IC50 (Thromboxane synthase)?
Its IC50 is 15 nM.

For `Cc1c(-c2cccnc2)c2ccccc2n1CCN(O)C(N)=O` [Compound 20, N-Hydroxy-N-[2-[1-[2-methyl-3-(3-pyridyl)indolyl]]ethyl]urea], which IC50 (Lipoxygenase; [2]) is on record?
The IC50 was 1500 nM.

And the IC50 (Thromboxane synthase)?
The IC50 was 5 nM.

Which IC50 (Lipoxygenase; [2]) does the source give for `NC(=O)N(O)CCCCCCn1cc(-c2cccnc2)c2ccccc21` [Compound 21, N-Hydroxy-N-[6-[1-[3-(3-pyridyl)indolyl]]hexyl]urea] here?
Its IC50 is 40 nM.

What about the IC50 (Thromboxane synthase) of the same molecule?
Its IC50 is 15 nM.

Which IC50 (Lipoxygenase; [2]) does the source give for `Cn1c(-c2cccnc2)c(C=CCN(O)C(N)=O)c2ccccc21` [Compound 24, N-Hydroxy-N-[3-[3-[1-methyl-2-(3-pyridyl)indolyl]]-2-propenyl]urea] here?
The IC50 was 4000 nM.

What about the IC50 (Thromboxane synthase) of the same molecule?
Its IC50 is 40 nM.

`NC(=O)N(O)CC=Cc1cn(Cc2cccnc2)c2ccccc12` [Compound 25, N-hydroxy-N-[3-[3-[1-(3-pyridylmethyl)indolyl]]-2-propenyl]urea] was tested. Which IC50 (Lipoxygenase; [2]) did it give?
The IC50 was 200 nM.

What about the IC50 (Thromboxane synthase) of the same molecule?
The IC50 was 150 nM.

What does the source list for `NC(=O)N(O)Cc1cn(Cc2cccnc2)c2ccccc12` [Compound 26, N-Hydroxy-N-[3-[1-(3-pyridylmethyl)indolyl]methyl]urea]?
ED50 [1]: 75 mg/kg; IC50 (Lipoxygenase): 3000 nM; IC50 (Thromboxane synthase): 700 nM

Which results are given for `NC(=O)N(O)Cc1ccc(Cc2cn(Cc3cccnc3)c3ccccc23)cc1` [Compound 27, N-Hydroxy-N-[4-[3-[1-(3-pyridylmethyl)indolyl]]methylbenzyl]urea]?
IC50 (Lipoxygenase; [2]): 100 nM; IC50 (Thromboxane synthase): 70 nM

How did the ED50 [1] turn out when `NC(=O)N(O)Cc1ccc2c(ccn2Cc2cccnc2)c1` [Compound 33, N-hydroxy-N-[5-[1-(3-pyridylmethyl)indolyl]methyl]urea] was run?
The ED50 was 30 mg/kg.

How did the IC50 (Lipoxygenase; [2]) turn out when `Cc1c(-c2cccnc2)n(C)c2ccc(CN(O)C(N)=O)cc12` [Compound 35, N-[5-[1,3-Dimethyl-2-(3-pyridyl)indolyl]methyl]-N-hydroxyurea] was run?
The IC50 was 2000 nM.

And the IC50 (Thromboxane synthase)?
The IC50 was 40 nM.

What does the source list for `Cn1cc(-c2cccnc2)c2cc(CN(O)C(N)=O)ccc21` [Compound 40, N-Hydroxy-N-[5-[1-methyl-3-(3-pyridyl)indolyl]methyl]urea]?
IC50 (Lipoxygenase; [2]): 700 nM; IC50 (Thromboxane synthase): 30 nM

What does the source list for `Cc1c(-c2cccnc2)n(C)c2ccc(C(C)N(O)C(N)=O)cc12` (stereo not shown) [Compound 41, N-[1-[5-[1,3-Dimethyl-2-(3-pyridyl)indolyl]]ethyl]-N-hydroxyurea]?
IC50 (Lipoxygenase; [2]): 2000 nM; IC50 (Thromboxane synthase): 70 nM

How did the IC50 (Lipoxygenase; [2]) turn out when `Cc1c(-c2cccnc2)n(C)c2ccc(C#CC(C)N(O)C(N)=O)cc12` (stereo not shown) [Compound 44, N-[2-[4-[5-[1,3-dimethyl-2-(3-pyridyl)indolyl]]-3-butynyl]]-N-hydroxyurea] was run?
Its IC50 is 600 nM.

And the IC50 (Thromboxane synthase)?
The IC50 was 30 nM.

`CC(c1ccc2c(c1)c(-c1cccnc1)cn2C)N(O)C(N)=O` (stereo not shown) [Compound 45, N-Hydroxy-N-[1-[5-[1-methyl-3-(3-pyridyl)indolyl]]ethyl]urea] was tested. Which IC50 (Lipoxygenase; [2]) did it give?
The IC50 was 2500 nM.

And the IC50 (Thromboxane synthase)?
Its IC50 is 60 nM.

Which ED50 [1] does the source give for `CC(c1cc2ccccc2s1)N(O)C(N)=O` (stereo not shown) [Compound A-64077, reference compound] here?
Its ED50 is 300 mg/kg.

With `O=C(O)/C=C/c1ccc(Cn2ccnc2)cc1` [OKY-046, reference compound] as the molecule, how does the ED50 [1] read?
The ED50 was 260 mg/kg.
